Data published in publication PMC12630292 (Journal of Neural Transmission, 2025).
Read-outs that look alike come from different tables or passages of the source.

Columns and labels:
D1 receptor [1] = target: T1, D1 receptor (Homo sapiens, UniProt P21728); assay: cell-based; conditions: read-out: Emax relative to dopamine, β-arrestin assay D1
D4 receptor = D4 receptor (Homo sapiens, UniProt P21917); assay: cell-based; conditions: read-out: Emax relative to dopamine, β-arrestin assay D4
D1 receptor [2] = target: T1, D1 receptor; assay: cell-based; conditions: read-out: Emax relative to dopamine, internalization assay D1
5HT2A = conditions: ref Millan et al. [2002]; Newman-Tancredi et al. [2002]; cited from earlier work
D2L receptor = D2L receptor (Homo sapiens, UniProt P14416); assay: cell-based; conditions: read-out: Emax relative to dopamine, β-arrestin assay D2L
D2S receptor = D2S receptor (Homo sapiens, UniProt P14416); assay: cell-based; conditions: read-out: Emax relative to dopamine, β-arrestin assay D2S
D3 receptor = D3 receptor (Homo sapiens, UniProt P35462); assay: cell-based; conditions: read-out: Emax relative to dopamine, β-arrestin assay D3

Emax (D1 receptor [1]): 28%
Emax (D4 receptor): 52%
Emax (D1 receptor [2]): 38%
Emax (D2L receptor): 83%
Emax (D2S receptor): 90%
Emax (D3 receptor): 89%
SMILES: CN1CCc2cccc3c2[C@H]1Cc1ccc(O)c(O)c1-3 [Apomorphine]
5HT2A antagonist actions (5HT2A): weak
